The record followed here is EPA's ToxValDB 9.5.

≈ marks a conversion by molar mass, not a printed value. Where “and” joins values, the source holds several entries; their conditions need not be identical. Identical values can stand only once.

For series [1], the system named is Rattus norvegicus. The following applies: for LD50 / LC50: acute.
In a further series the test system is Oryctolagus sp. The following applies: New Zealand; for LD50: acute, dermal.
For series [2], the system named is Rattus norvegicus. The following applies: subchronic; duration: 90 days; oral; gavage; M; Sprague-Dawley; Increased hepatocellular hypertrophy (Liver), Decreased total T4 (Thyroid).
Another series relates to Mus musculus. The following applies: oral.
The test system of series [3] is Rattus norvegicus. Particulars: oral, Sprague-Dawley.
Setting [4] is: subchronic, duration: 30 days, oral, diet, Sprague-Dawley.
Where [5] appears, read: short-term, duration: 28 days, M, Endocrine: Hyperplasia/hypertrophy of follicular epithelium of the thyroid.
[6] abbreviates: short-term, duration: 28 days, M, Neurological: Delayed pupillary reflex.

On to `CCCCCCCCCCc1cccc(Oc2ccccc2S(=O)(=O)[O-])c1S(=O)(=O)[O-].[Na+].[Na+]` [Disodium n-decyldiphenyl ether disulfonate], for which the LD50 in the series with Rattus norvegicus [1] (oral, gavage, Fischer 344) was above 2000 mg/kg; with Rattus norvegicus [1] (oral, gavage, Sprague-Dawley), 3560 mg/kg; in the series with Oryctolagus sp. (occlusive), above 2000 mg/kg.

`CCCCCCCCCCCCCCCCCCOP1OCC2(CO1)COP(OCCCCCCCCCCCCCCCCCC)OC2` (stereo not given) [Distearyl pentaerythritol diphosphite]: the median lethal dose (LD50) was above 10000 mg/kg in the series with Rattus norvegicus [1] (oral, gavage, Sherman Wistar) and above 2000 mg/kg in the series with Oryctolagus sp.. This compound returned a no observed adverse effect level (NOAEL) with Rattus norvegicus [1] (subchronic, duration: 90 days, oral, diet, Sprague-Dawley) above 288 mg/kg-day.

With `CCCCCCCCCCCCCCCCCCN(C)CCCCCCCCCCCCCCCCCC` [Distearylmethylamine], the 50% lethal dose (LD50) in the series on Rattus norvegicus [1] (oral, gavage, Sprague-Dawley) is above 5000 mg/kg; in the series with Rattus norvegicus [1] (oral, gavage, Wistar), above 2000 mg/kg; with Oryctolagus sp. (occlusive), above 2000 mg/kg. Moreover, in the series on Rattus norvegicus [1] (subchronic, duration: 13 weeks, oral, diet, Sprague-Dawley), the “LOAEL (% diet)” value came to 0.15.

With `C=C(C#N)C(=O)OCC` [Ethyl cyanoacrylate], the LC50 in the series on Rattus norvegicus [1] (inhalation, Wistar) was below 21.1 µg/mL. Besides, the LD50 in the series with Rattus norvegicus [1] (oral, gavage) was above 5000 mg/kg; in the series on Oryctolagus sp. (occlusive), above 2000 mg/kg.

Take `CN(C)CCN(C)C` [N,N,N',N'-Tetramethylethylenediamine]: the LC50 in the series with Rattus norvegicus [1] (inhalation) was above 5610 mg/m3; in the series on Rattus norvegicus [1] (inhalation, Sprague-Dawley), above 5610 mg/m3; in the series on Rattus norvegicus [1] (inhalation, Wistar) it was 6260 mg/m3. The compound further displayed an LD50 with Oryctolagus sp. of 1230 mg/kg.

The compound `CCNc1cccc(C)c1` [N-Ethyl-3-methylaniline] returned an LC50 in the series on Rattus norvegicus [1] (inhalation) of 2.4 µg/mL (≈ 17.8 µM). For the same compound, the LD50 was 787 mg/kg and 478 mg/kg with Rattus norvegicus [1] (oral, Sprague-Dawley); 650 mg/kg in the series with Rattus norvegicus [1] (oral, gavage, Wistar); above 2000 mg/kg with Oryctolagus sp.. For the same compound, the no-observed-adverse-effect level (NOAEL) with Rattus norvegicus [1] (short-term, duration: 2 weeks, inhalation, Sprague-Dawley) was 31 mg/m3.

For the compound `CN1C(=O)c2ccccc2C1=O` [N-Methylphthalimide], the LD50 in the series on Rattus norvegicus [1] (oral, Spartan) was above 500 mg/kg; with Rattus norvegicus [1] (oral, gavage, Spartan), above 500 mg/kg; in the series with Oryctolagus sp. (occlusive), above 2000 mg/kg. In addition, the NOAEL in the series on Rattus norvegicus [1] (reproduction developmental, duration: 4 weeks, oral, gavage, F, Sprague-Dawley) is 150 mg/kg-day; in the series with Rattus norvegicus [1] (reproduction developmental, duration: 4 weeks, oral, gavage, M, Sprague-Dawley), at least 600 mg/kg-day; in the series on Rattus norvegicus [1] (reproduction developmental, duration: 4 weeks, oral, gavage, Sprague-Dawley, generation: F0), 150 mg/kg-day; with Rattus norvegicus [1] (reproduction developmental, duration: 4 weeks, oral, gavage, Sprague-Dawley, generation: F1), below 50 mg/kg-day; in the series with Rattus norvegicus [1] (reproduction developmental, oral, gavage, F) it was 150 mg/kg-day; with Rattus norvegicus [1] (reproduction developmental, oral, gavage, generation: F0), 150 mg/kg-day. Also, the no-observed-adverse-effect level (NOAEL) is 50 mg/kg-day in the series on Rattus norvegicus [1] (reproduction developmental, oral, gavage, generation: F1) and above 500 mg/kg-day in the series with Oryctolagus sp. (developmental, duration: 6 days, oral, gavage). Besides, in the series on Rattus norvegicus [1] (setting [4]), the “LOAEL (% diet)” value came out at 0.5. The “NOAEL (% diet)” value with Rattus norvegicus [1] (setting [4]) came to 0.25.

As to `O=C(O)C(F)(F)C(F)(F)C(F)(F)F` [Perfluorobutanoic acid], the NOAEL was 6 mg/kg-day in the series with Rattus norvegicus [2]; 350 mg/kg-day in the series on Mus musculus (reproduction developmental, duration: 18 days, gavage, CD1, Hepatic: Significant increase in absolute and relative liver weight at ?[…]); 78 mg/kg-day with Mus musculus (short-term, duration: 10 days, diet, M, Hepatic: 63% increase in absolute liver weight); 184 mg/kg-day in the series on Rattus norvegicus [3] (short-term, duration: 5 days, gavage, M/F, Immunotoxicological: No histological alterations + Neurological: No histological alterations + Reproductive: No histological alterations); 20 mg/kg-day in the series with Rattus norvegicus [3] (short-term, duration: 14 days, diet, M, Hepatic: Biochemical and ultrastructural evidence of peroxisome proliferation); 150 mg/kg-day in the series with Rattus norvegicus [3] (short-term, duration: 28 days, M/F, Hepatic: Increased absolute and relative liver weight and decreased serum cholesterol in males at ?30 mg/kg/day / hepatocellular …). Besides, the NOAEL in the series on Rattus norvegicus [3] (setting [5]) was found to be 6 mg/kg-day; in the series on Rattus norvegicus [3] (setting [6]), 30 mg/kg-day; in the series on Rattus norvegicus [3] (subchronic, duration: 90 days, M/F, Hematological: Reduced erythrocyte counts (3.8%), hemoglobin (5.7%), and hematocrit (4.5%)) it was 6 mg/kg-day; in the series with Rattus norvegicus [3] (subchronic, duration: 90 days, M/F, Hepatic: Diffuse panlobular hepatocyte hypertrophy at 30 mg/kg/day in males + Immunotoxicological: No histological alterations + …), 30 mg/kg-day; in the series on Rattus norvegicus [3] (subchronic, duration: 90 days, M, Endocrine: Hypertrophy/hyperplasia of follicular epithelium of the thyroid gland), 6 mg/kg-day. The LOAEL in the series on Mus musculus (developmental, duration: 18 days, gavage, CD1, Developmental: Eye opening delayed approximately 1 day) amounted to 35 mg/kg-day; with Rattus norvegicus [3] (setting [5]) it was 30 mg/kg-day; with Rattus norvegicus [3] (setting [6]) it was 150 mg/kg-day; with Rattus norvegicus [3] (subchronic, duration: 90 days, M, Endocrine: Hypertrophy/hyperplasia of follicular epithelium of the thyroid gland + Hematological: Reduced erythrocyte counts (3.8%), …), 30 mg/kg-day.

Consider `CC1COC(=O)O1` (stereo not given) [Propylene carbonate], for which the LD50 was above 5000 mg/kg with Rattus norvegicus [1] (oral, Sprague-Dawley) and above 3000 mg/kg in the series with Oryctolagus sp. (occlusive). The NOAEL in the series on Rattus norvegicus [1] (developmental, duration: 6 days, oral, gavage, Sprague-Dawley) is 5000 mg/kg-day; with Rattus norvegicus [1] (reproduction developmental, duration: 13 weeks, oral, gavage, Sprague-Dawley, generation: F0) it was 5000 mg/kg-day; in the series with Rattus norvegicus [1] (reproduction developmental, duration: 13 weeks, oral, gavage, Sprague-Dawley, generation: F1), 5000 mg/kg-day; with Rattus norvegicus [1] (reproduction developmental, duration: 13 weeks, oral, gavage, Sprague-Dawley, generation: F2) it was 5000 mg/kg-day; with Rattus norvegicus [1] (reproduction developmental, duration: 93 days, inhalation, generation: F0), 1000 mg/m3; in the series on Rattus norvegicus [1] (reproduction developmental, duration: 93 days, inhalation, generation: F1) it was 1000 mg/m3. The NOAEL came out at 1000 mg/m3 with Rattus norvegicus [1] (reproduction developmental, duration: 93 days, inhalation, generation: F2) and 5000 mg/kg-day in the series with Rattus norvegicus [1] (subchronic, duration: 90 days, oral, gavage, Sprague-Dawley).

Broadly, the LD50 is the dose expected to kill half of the subjects tested. A higher LD50 goes with lower toxicity. As usually defined, the NOAEL is the highest dose or exposure tested at which no adverse effect was seen. A word on the LOAEL: it is the lowest tested level that showed an adverse finding.
